Measurements taken from patent US12723063B2, “GIPR-agonist compounds” (Eli Lilly and Company, priority 2019, dated 2026).
*1 amine or outer side, *2 acyl side, *3 side chain or, on linkers, in order; H or OH if unused. Where a SMILES comes first, the peptide text is derived from it. Side-chain parts run from the residue outwards. [ ]: non-standard residue; d: D form. The star is where a group is joined. C20 diacid = O=C(O)CCCCCCCCCCCCCCCCCCC(=O)*; γGlu = O=C(O)[C@H](CCC(=O)[*:2])N[*:1]; 4Pal = N[C@@H](Cc1ccncc1)C(=O)O; αMeL = CC(C)C[C@](C)(N)C(=O)O; Iva = CC[C@](C)(N)C(=O)O; Orn = NCCC[C@H](N)C(=O)O; AEEA = NCCOCCOCC(=O)O; Aib = CC(C)(N)C(=O)O

Tests used:
[1] = molecular target: T1, human GLP-1R (Homo sapiens, UniProt P43220); assay: [125I]-GLP-1 binding, SPA with WGA beads, 0.1% bacitracin; details: geometric mean, read-out: hGLP1R Ki
T1 construct: expressed in transfected cells; crude membranes
T1 sequence (P43220 24-463): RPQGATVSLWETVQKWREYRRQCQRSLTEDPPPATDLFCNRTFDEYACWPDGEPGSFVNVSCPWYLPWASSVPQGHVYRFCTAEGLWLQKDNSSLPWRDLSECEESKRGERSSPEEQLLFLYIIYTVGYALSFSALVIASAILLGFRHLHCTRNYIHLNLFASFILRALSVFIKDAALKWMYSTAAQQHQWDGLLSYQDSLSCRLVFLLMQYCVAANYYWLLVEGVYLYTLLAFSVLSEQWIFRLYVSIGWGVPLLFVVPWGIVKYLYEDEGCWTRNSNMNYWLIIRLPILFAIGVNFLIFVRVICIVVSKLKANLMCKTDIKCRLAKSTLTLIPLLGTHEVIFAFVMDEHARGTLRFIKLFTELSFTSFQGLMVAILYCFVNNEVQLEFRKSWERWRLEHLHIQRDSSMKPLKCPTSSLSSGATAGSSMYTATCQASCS
How it was run: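 Binding buffer was 25 mM HEPES pH 7.4 with 2.5 mM CaCl2, 1 mM MgCl2, 0.1% (w/v) bacitracin, 0.003% Tween-20 and EDTA-free protease inhibitors. Four-parameter regression gave IC50, converted to Ki (geometric mean, SEM, n independent days).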

[2] = molecular target: T2, human GIPR (Homo sapiens, UniProt P48546); assay: [125I]-GIP binding, SPA with WGA beads, 0.1% bacitracin; details: geometric mean, read-out: hGIPR Ki
T2 construct: expressed in transfected cells; crude membranes
T2 sequence (P48546 22-466): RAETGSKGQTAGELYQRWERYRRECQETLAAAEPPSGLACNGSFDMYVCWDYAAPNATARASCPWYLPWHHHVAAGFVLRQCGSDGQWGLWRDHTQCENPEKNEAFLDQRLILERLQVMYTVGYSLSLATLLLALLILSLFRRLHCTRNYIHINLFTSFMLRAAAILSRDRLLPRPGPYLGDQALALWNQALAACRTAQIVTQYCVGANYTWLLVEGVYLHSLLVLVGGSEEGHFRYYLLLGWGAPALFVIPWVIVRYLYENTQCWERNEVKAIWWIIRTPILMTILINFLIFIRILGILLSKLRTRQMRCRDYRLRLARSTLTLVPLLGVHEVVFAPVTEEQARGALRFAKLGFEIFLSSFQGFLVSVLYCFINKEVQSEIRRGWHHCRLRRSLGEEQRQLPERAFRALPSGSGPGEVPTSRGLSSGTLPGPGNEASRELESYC
How it was run: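 Ki values are geometric means (SEM, n independent days), derived from four-parameter nonlinear regression of IC50. Membranes came from hGIPR-expressing CHO cells.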

In the case of `CC[C@H](C)[C@H](NC(=O)[C@H](CO)NC(=O)[C@H](Cc1ccc(O)cc1)NC(=O)[C@H](CC(=O)O)NC(=O)[C@H](CO)NC(=O)[C@@H](NC(=O)[C@](C)(CC)NC(=O)[C@@H](NC(=O)CNC(=O)[C@H](CCC(=O)O)NC(=O)C(C)(C)NC(=O)[C@@H](N)Cc1ccc(O)cc1)[C@@H](C)O)[C@@H](C)CC)C(=O)N[C@@](C)(CC(C)C)C(=O)N[C@@H](CC(C)C)C(=O)N[C@@H](CC(=O)O)C(=O)N[C@@H](CCCN)C(=O)N[C@@H](CCCCNC(=O)COCCOCCNC(=O)COCCOCCNC(=O)CC[C@H](NC(=O)CCCCCCCCCCCCCCCCCCC(=O)O)C(=O)O)C(=O)N[C@@H](Cc1c[nH]cn1)C(=O)N[C@@H](CCC(N)=O)C(=O)NC(C)(C)C(=O)N[C@@H](CC(=O)O)C(=O)N[C@@H](Cc1ccccc1)C(=O)N[C@H](C(=O)N[C@@H](CCC(=O)O)C(=O)N[C@@H](Cc1ccncc1)C(=O)N[C@@H](CC(C)C)C(=O)N[C@@H](CC(C)C)C(=O)N[C@@H](CCC(=O)O)C(=O)NCC(=O)NCC(=O)N1CCC[C@H]1C(=O)N[C@@H](CO)C(=O)N[C@@H](CO)C(=O)NCC(=O)N[C@@H](C)C(=O)N1CCC[C@H]1C(=O)N1CCC[C@H]1C(=O)N1CCC[C@H]1C(=O)N[C@@H](CO)C(N)=O)C(C)C` [Example 76] (H-Y[Aib]EGT[Iva]ISDYSI[αMeL]LD[Orn]K([AEEA-AEEA-γGlu-C20 diacid])HQ[Aib]DFVE[4Pal]LLEGGPSSGAPPPS-NH2), the Ki [1] is reported as 263 nM and the Ki [2] is reported as 0.0293 nM.
For `CC[C@H](C)[C@H](NC(=O)[C@H](CO)NC(=O)[C@H](Cc1ccc(O)cc1)NC(=O)[C@H](CC(=O)O)NC(=O)[C@H](CO)NC(=O)[C@@H](NC(=O)[C@](C)(CC)NC(=O)[C@@H](NC(=O)CNC(=O)[C@H](CCC(=O)O)NC(=O)C(C)(C)NC(=O)[C@@H](N)Cc1ccc(O)cc1)[C@@H](C)O)[C@@H](C)CC)C(=O)N[C@@](C)(CC(C)C)C(=O)N[C@@H](CC(C)C)C(=O)N[C@@H](CC(=O)O)C(=O)N[C@@H](CCCN)C(=O)N[C@@H](CCCCNC(=O)COCCOCCNC(=O)COCCOCCNC(=O)CC[C@H](NC(=O)CCCCCCCCCCCCCCCCCCC(=O)O)C(=O)O)C(=O)N[C@@H](Cc1c[nH]cn1)C(=O)N[C@@H](CCC(N)=O)C(=O)NC(C)(C)C(=O)N[C@@H](CC(=O)O)C(=O)N[C@@H](Cc1ccccc1)C(=O)N[C@H](C(=O)N[C@@H](CCC(=O)O)C(=O)N[C@@H](Cc1ccncc1)C(=O)N[C@@H](CC(C)C)C(=O)N[C@@H](CC(C)C)C(=O)N[C@@H](CCC(=O)O)C(=O)N[C@H](C(=O)NCC(=O)N1CCC[C@H]1C(=O)N[C@@H](CO)C(=O)N[C@@H](CO)C(=O)NCC(=O)N[C@@H](C)C(=O)N1CCC[C@H]1C(=O)N1CCC[C@H]1C(=O)N1CCC[C@H]1C(=O)N[C@@H](CO)C(N)=O)[C@@H](C)O)C(C)C` [Example 77] (H-Y[Aib]EGT[Iva]ISDYSI[αMeL]LD[Orn]K([AEEA-AEEA-γGlu-C20 diacid])HQ[Aib]DFVE[4Pal]LLETGPSSGAPPPS-NH2), the Ki [1] was over 905 nM and the Ki [2] was 0.0841 nM.
Work on `CC[C@H](C)[C@H](NC(=O)[C@H](Cc1ccccc1)NC(=O)[C@@H](NC(=O)CNC(=O)[C@H](CCC(=O)O)NC(=O)C(C)(C)NC(=O)[C@@H](N)Cc1ccc(O)cc1)[C@@H](C)O)C(=O)N[C@@H](CO)C(=O)N[C@@H](CC(=O)O)C(=O)N[C@@H](Cc1ccc(O)cc1)C(=O)N[C@@H](CO)C(=O)N[C@H](C(=O)N[C@@](C)(CC(C)C)C(=O)N[C@@H](CC(C)C)C(=O)N[C@@H](CC(=O)O)C(=O)N[C@@H](CCCCN)C(=O)N[C@@H](CCCCNC(=O)COCCOCCNC(=O)COCCOCCNC(=O)CC[C@H](NC(=O)CCCCCCCCCCCCCCCCCCC(=O)O)C(=O)O)C(=O)N[C@@H](Cc1c[nH]cn1)C(=O)N[C@@H](CCC(N)=O)C(=O)NC(C)(C)C(=O)N[C@@H](CC(=O)O)C(=O)N[C@@H](Cc1ccccc1)C(=O)N[C@H](C(=O)N[C@@H](CCC(=O)O)C(=O)N[C@@H](Cc1ccncc1)C(=O)N[C@@H](CC(C)C)C(=O)N[C@@H](CC(C)C)C(=O)N[C@@H](C)C(=O)N[C@@H](C)C(=O)NCC(=O)N1CCC[C@H]1C(=O)N[C@@H](CO)C(=O)N[C@@H](CO)C(=O)NCC(=O)N[C@@H](C)C(=O)N1CCC[C@H]1C(=O)N1CCC[C@H]1C(=O)N1CCC[C@H]1C(=O)N[C@@H](CO)C(N)=O)C(C)C)[C@@H](C)CC` [Example 78] yielded a Ki [1] of 394 nM and a Ki [2] of 0.0236 nM.
In the case of `CC[C@H](C)[C@H](NC(=O)[C@H](Cc1ccccc1)NC(=O)[C@@H](NC(=O)CNC(=O)[C@H](CCC(=O)O)NC(=O)C(C)(C)NC(=O)[C@@H](N)Cc1ccc(O)cc1)[C@@H](C)O)C(=O)N[C@@H](CO)C(=O)N[C@@H](CC(=O)O)C(=O)N[C@@H](Cc1ccc(O)cc1)C(=O)N[C@@H](CO)C(=O)N[C@H](C(=O)N[C@@](C)(CC(C)C)C(=O)N[C@@H](CC(C)C)C(=O)N[C@@H](CC(=O)O)C(=O)N[C@@H](CCCCN)C(=O)N[C@@H](CCCCNC(=O)COCCOCCNC(=O)COCCOCCNC(=O)CC[C@H](NC(=O)CCCCCCCCCCCCCCCCCCC(=O)O)C(=O)O)C(=O)N[C@@H](Cc1c[nH]cn1)C(=O)N[C@@H](CCC(N)=O)C(=O)NC(C)(C)C(=O)N[C@@H](CC(=O)O)C(=O)N[C@@H](Cc1ccccc1)C(=O)N[C@H](C(=O)N[C@@H](CCC(=O)O)C(=O)N[C@@H](Cc1ccncc1)C(=O)N[C@@H](CC(C)C)C(=O)N[C@@H](CC(C)C)C(=O)N[C@@H](C)C(=O)N[C@@H](CCC(N)=O)C(=O)NCC(=O)N1CCC[C@H]1C(=O)N[C@@H](CO)C(=O)N[C@@H](CO)C(=O)NCC(=O)N[C@@H](C)C(=O)N1CCC[C@H]1C(=O)N1CCC[C@H]1C(=O)N1CCC[C@H]1C(=O)N[C@@H](CO)C(N)=O)C(C)C)[C@@H](C)CC` [Example 79] (H-Y[Aib]EGTFISDYSI[αMeL]LDKK([AEEA-AEEA-γGlu-C20 diacid])HQ[Aib]DFVE[4Pal]LLAQGPSSGAPPPS-NH2), the Ki [1] is reported as 486 nM and the Ki [2] is reported as 0.0229 nM.
In the case of `CC[C@H](C)[C@H](NC(=O)[C@H](Cc1ccccc1)NC(=O)[C@@H](NC(=O)CNC(=O)[C@H](CCC(=O)O)NC(=O)C(C)(C)NC(=O)[C@@H](N)Cc1ccc(O)cc1)[C@@H](C)O)C(=O)N[C@@H](CO)C(=O)N[C@@H](CC(=O)O)C(=O)N[C@@H](Cc1ccc(O)cc1)C(=O)N[C@@H](CO)C(=O)N[C@H](C(=O)N[C@@](C)(CC(C)C)C(=O)N[C@@H](CC(C)C)C(=O)N[C@@H](CC(=O)O)C(=O)N[C@@H](CCCN)C(=O)N[C@@H](CCCCNC(=O)COCCOCCNC(=O)COCCOCCNC(=O)CC[C@H](NC(=O)CCCCCCCCCCCCCCCCCCC(=O)O)C(=O)O)C(=O)N[C@@H](Cc1c[nH]cn1)C(=O)N[C@@H](CCC(N)=O)C(=O)NC(C)(C)C(=O)N[C@@H](CC(=O)O)C(=O)N[C@@H](Cc1ccccc1)C(=O)N[C@H](C(=O)N[C@@H](CCC(=O)O)C(=O)N[C@@H](Cc1ccncc1)C(=O)N[C@@H](CC(C)C)C(=O)N[C@@H](CC(C)C)C(=O)N[C@@H](CCC(=O)O)C(=O)N[C@H](C(=O)NCC(=O)N1CCC[C@H]1C(=O)N[C@@H](CO)C(=O)N[C@@H](CO)C(=O)NCC(=O)N[C@@H](C)C(=O)N1CCC[C@H]1C(=O)N1CCC[C@H]1C(=O)N1CCC[C@H]1C(=O)N[C@@H](CO)C(N)=O)[C@@H](C)O)C(C)C)[C@@H](C)CC` [Example 80] (H-Y[Aib]EGTFISDYSI[αMeL]LD[Orn]K([AEEA-AEEA-γGlu-C20 diacid])HQ[Aib]DFVE[4Pal]LLETGPSSGAPPPS-NH2), the Ki [1] is reported as over 906 nM and the Ki [2] is reported as 0.0828 nM.
For `CC[C@H](C)[C@H](NC(=O)[C@H](Cc1ccccc1)NC(=O)[C@@H](NC(=O)CNC(=O)[C@H](CCC(=O)O)NC(=O)C(C)(C)NC(=O)[C@@H](N)Cc1ccc(O)cc1)[C@@H](C)O)C(=O)N[C@@H](CO)C(=O)N[C@@H](CC(=O)O)C(=O)N[C@@H](Cc1ccc(O)cc1)C(=O)N[C@@H](CO)C(=O)N[C@H](C(=O)N[C@@](C)(CC(C)C)C(=O)N[C@@H](CC(C)C)C(=O)N[C@@H](CC(=O)O)C(=O)N[C@@H](CCCN)C(=O)N[C@@H](CCCCNC(=O)COCCOCCNC(=O)COCCOCCNC(=O)CC[C@H](NC(=O)CCCCCCCCCCCCCCCCCCC(=O)O)C(=O)O)C(=O)N[C@@H](Cc1c[nH]cn1)C(=O)N[C@@H](CCC(N)=O)C(=O)NC(C)(C)C(=O)N[C@@H](CC(=O)O)C(=O)N[C@@H](Cc1ccccc1)C(=O)N[C@H](C(=O)N[C@@H](CCC(=O)O)C(=O)N[C@@H](Cc1ccncc1)C(=O)N[C@@H](CC(C)C)C(=O)N[C@@H](CC(C)C)C(=O)N[C@@H](CCC(=O)O)C(=O)N[C@@H](CCC(N)=O)C(=O)NCC(=O)N1CCC[C@H]1C(=O)N[C@@H](CO)C(=O)N[C@@H](CO)C(=O)NCC(=O)N[C@@H](C)C(=O)N1CCC[C@H]1C(=O)N1CCC[C@H]1C(=O)N1CCC[C@H]1C(=O)N[C@@H](CO)C(N)=O)C(C)C)[C@@H](C)CC` [Example 81] (H-Y[Aib]EGTFISDYSI[αMeL]LD[Orn]K([AEEA-AEEA-γGlu-C20 diacid])HQ[Aib]DFVE[4Pal]LLEQGPSSGAPPPS-NH2), the Ki [1] was 714 nM and the Ki [2] was 0.0374 nM.
